Assay results reported in EP4289427A1, “DIHYDRO[1,8]NAPHTHYRIDIN-7-ONE AND PYRIDO[3,2-B][1,4]OXAZIN-3-ONE FOR USE IN TREATING CANCER, AND METASTASES IN PARTICULAR” (Anagenesis Biotechnologies, priority 2022, dated 2023).

Columns and labels:
[1] = tested on: RD cells; assay: Cytotoxicity assay (CellTiter-Glo 2.0) on RD cells; assay type: cell-based, Human; settings: for IC50: Homo sapiens
How it was run: (§1)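 Luminescent quantification of ATP from metabolically active cells, 10 min after CellTiter-Glo 2.0 addition at room temperature, served as the viability measure. Compound incubation length and seeding density depended on the cell line. Values are relative IC50.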

[2] = tested on: 4T1 cells; assay: Cytotoxicity assay (CellTiter-Glo 2.0) on 4T1 cells; assay type: cell-based, Mouse; settings: incubation 2 days; for IC50: Mus musculus, 48 h
How it was run: as §1

[3] = tested on: MDA-MB-231 cells; assay: Cytotoxicity assay (CellTiter-Glo 2.0) on MDA-MB-231 cells; assay type: cell-based, Human; settings: incubation 3 days; for IC50: Homo sapiens, 72 h
How it was run: as §1

[4] = tested on: EoL-1 cells; assay: Cytotoxicity assay (CellTiter-Glo 2.0) on EoL-1 cells; assay type: cell-based, Human; settings: incubation 1 day; for IC50: Homo sapiens, EOL1, 24 h
How it was run: as §1

[5] = tested on: HUVECs; assay: Tube formation assay (anti-angiogenic activity); assay type: cell-based, human; settings: incubation 16 to 18 hours; for IC50: Homo sapiens, HUVEC
How it was run: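 HUVECs plated at 5000 cells/well on reduced growth factor basement membrane matrix, then exposed to compounds for 16 to 18 hours at 37°C. Cells stained with calcein-AM; tube networks imaged by confocal fluorescence microscopy and quantified.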

[6] = tested on: 4T1 cells; assay: Epithelial-mesenchymal transition marker expression by qRT-PCR; assay type: cell-based, Mouse; design: key: ↗: increased expression; ↘: decreased expression; =: unchanged expression levels; settings: 24 hours, expression normalized against RPL13
Excerpt: The epithelial-mesenchymal transition (hereafter "EMT") is a process by which epithelial cells lose their cell polarity and cell-cell adhesion while gaining migratory and invasive properties to become mesenchymal stem cells. EMT is commonly measured by quantifying both epithelial and mesenchymal marker's expression by quantitative reverse-transcription polymerase chain reaction (hereafter "qRT-PCR"). EMT inhibition is observed when epithelial markers are stable or increased while mesenchymal markers are decreased.
4T1 cells were treated with compounds to be tested or DMSO for 24 hours. 4T1 cells were then harvested directly in NucleoZol lysis buffer (cat. no. 740404.200 from Macherey-Nagel), according to the manufacturer's instructions. Total RNA was extracted using the NucleoSpin RNA set for NucleoZol (cat. no. 740406.50 from Macherey-Nagel). The quantity and purity of RNA was determined using a Quickdrop (Molecular Devices). RT-PCR was performed on 500 ng total RNA using iScript gDNA clear cDNA synthesis Kit (cat.no. 1725035 from Biorad). The qPCR was run on a QuantStudio 5 real time thermocycler (Applied Biosystems), with PowerUp SYBR Green Master Mix (cat.no. A25742 from Fisher Scientific) and the primers listed in Table 16.
Expression data of EMT markers have been normalized against expression data of the housekeeping gene RPL13.

[7] = tested on: RD cells; assay: Differentiation of RD cells into myotubes (alpha-actinin staining); assay type: cell-based, Human; settings: 7 days, Figure 3
Procedure: RD cells are cancer cells of muscle origin that arose from myogenic precursors that fail to complete muscle differentiation. One strategy to stop their progression is to differentiate them into myotubes.
To allow differentiation, RD cells were seeded at a density of 3500 cells/well in a 384-well plate coated with collagen type I, in DMEM (4,5g/L glucose) with L-Gln (cat.no. 41965-039 from Gibco) supplemented with 5% of knockout serum replacement (cat.no. 10828-028 from Gibco), 1% PenStrep (Gibco), 1% MEM NEAA (Gibco) and 0.1 mM 2-mercaptoethanol (Gibco) (hereafter "K5 medium"). Compounds to be tested were then added onto the cells and incubated for 7 days at 37°C. On day 7, cells were fixed with 4% paraformaldehyde solution and immunostained for α-actinin (cat.no. EA-53 from Sigma, at 1/30000).

[8] = tested on: MDA-MB-231 cells; assay: Scratch (wound healing) assay, cell migration; assay type: cell-based, Human; settings: 24 hours, Figure 1
Procedure: Cell migration is involved in several pathological cancer processes such as tumor invasion, neoangiogenesis and metastasis. Scratch (or wound healing) assay is a method to study two-dimensional cell migration in vitro. It is based on the observation that cells growing in a monolayer migrate to reestablish cell contacts after a mechanical scratch wound.
The MDA-MB-231 cells were seeded into a 24-well plate and grown to confluent density. A scrape was made in each well using a pipette tip. Then, the cells monolayers were incubated for 2 hours with 5 µg/ml mitomycin C to stop cell proliferation. The cells were treated with the compounds to be tested for 24 hours. The cells were stained using CellMask Green actin tracking stain (cat.no. A57246 from Fisher Scientific) at time zero and at endpoint. Pictures were acquired using a fluorescence microscope (IXM from Molecular Device). The scratch area was measured with the ImageJ software. The recovery of the scratch area was calculated as a percentage of the scratch area at time zero.

Structure (SMILES) | Cytotoxicity ([1]; 2 day-treatment) | Cytotoxicity ([1]; 4 day-treatment) | IC50 ([1]; 48 h, 2 day-treatment) [µM] | IC50 ([1]; 96 h, 4 day-treatment) [µM] | IC50 [2] [nM] | Cytotoxicity [2] | IC50 [3] [nM] | Cytotoxicity [3] | IC50 [4] [nM] | Cytotoxicity [4] | IC50 [5] [nM] | Angiogenesis inhibition [5] | Epithelial markers E-cadherin [6] | Epithelial markers EpCAM [6] | Mesenchymal markers Fibronectin [6] | Mesenchymal markers Vimentin [6] | differentiation into myotubes [7] | migration in the scratch assay [8]
CC(C)(C)c1cc(NC(=O)Nc2ccc(Oc3ccnc4c3CCC(=O)N4)cc2C(F)(F)F)on1 [Compound 023, 1-(3-tert-butylisoxazol-5-yl)-3-[4-[(7-oxo-6,8-dihydro-5H-1,8-naphthyridin-4-yl)oxy]-2-(trifluoromethyl)phenyl]urea] | ++ (50% ≤ cytotoxicity < 85%) | ++ (50% ≤ cytotoxicity < 85%) | 1 to 5 | 1 to 5 | 1000 to 5000 | +++ (cytotoxicity ≥ 85%) | 1000 to 5000 | ++ (50% ≤ cytotoxicity < 85%) | 1 to 10 | +++ (cytotoxicity ≥ 85%) | 100 to 500 | +++ (angiogenesis inhibition ≥ 80%) | ↗ | = | ↘ | ↘ |  | 
CSc1cc(Oc2ccnc3c2CCC(=O)N3)ccc1NC(=O)Nc1cc(C(C)(C)C)nn1-c1cncc(F)c1 [Compound 027, 1-[5-tert-butyl-2-(5-fluoro-3-pyridyl)pyrazol-3-yl]-3-[2-methylsulfanyl-4-[(7-oxo-6,8-dihydro-5H-1,8-naphthyridin-4-yl)oxy]phenyl]urea] | ++ (50% ≤ cytotoxicity < 85%) | ++ (50% ≤ cytotoxicity < 85%) | 1 to 5 | 1 to 5 | < 1000 | +++ (cytotoxicity ≥ 85%) | < 1000 | ++ (50% ≤ cytotoxicity < 85%) | 1 to 10 | +++ (cytotoxicity ≥ 85%) | < 100 | +++ (angiogenesis inhibition ≥ 80%) | ↗ | = | ↘ | ↘ |  | 
CSc1cc(Oc2ccnc3c2OCC(=O)N3)ccc1NC(=O)Nc1cc(C(C)(C)C)on1 [Compound 021, 1-(5-tert-butylisoxazol-3-yl)-3-[2-methylsulfanyl-4-[(3-oxo-4H-pyrido[3,2-b][1,4]oxazin-8-yl)oxy]phenyl]urea] | ++ (50% ≤ cytotoxicity < 85%) | ++ (50% ≤ cytotoxicity < 85%) | 1 to 5 | 1 to 5 | 1000 to 5000 | ++ (50% ≤ cytotoxicity < 85%) | 1000 to 5000 | ++ (50% ≤ cytotoxicity < 85%) | < 1 | +++ (cytotoxicity ≥ 85%) | 100 to 500 | +++ (angiogenesis inhibition ≥ 80%) |  |  |  |  | dose-dependent differentiation into myotubes | 
Cc1ccc(-n2nc(C(C)(C)C)cc2NC(=O)Nc2ccc(Oc3ccnc4c3OCC(=O)N4)cc2C(F)(F)F)cn1 [Compound 040, 1-[5-tert-butyl-2-(6-methyl-3-pyridyl)pyrazol-3-yl]-3-[4-[(3-oxo-4H-pyrido[3,2-b][1,4]oxazin-8-yl)oxy]-2-(trifluoromethyl)phenyl]urea] | ++ (50% ≤ cytotoxicity < 85%) | ++ (50% ≤ cytotoxicity < 85%) | 5 to 10 | 5 to 10 | < 1000 | +++ (cytotoxicity ≥ 85%) | 1000 to 5000 | ++ (50% ≤ cytotoxicity < 85%) | 10 to 100 | ++ (50% ≤ cytotoxicity < 85%) | 100 to 500 | +++ (angiogenesis inhibition ≥ 80%) |  |  |  |  |  | inhibition of their migration
CSc1cc(Oc2ccnc3c2CCC(=O)N3)ccc1NC(=O)Nc1cc(C(C)(C)C)nn1-c1cccc(F)c1 [Compound 013, 1-[5-tert-butyl-2-(3-fluorophenyl)pyrazol-3-yl]-3-[2-methylsulfanyl-4-[(7-oxo-6,8-dihydro-5H-1,8-naphthyridin-4-yl)oxy]phenyl]urea] | ++ (50% ≤ cytotoxicity < 85%) | ++ (50% ≤ cytotoxicity < 85%) | 1 to 5 | 5 to 10 | < 1000 | +++ (cytotoxicity ≥ 85%) | 1000 to 5000 | ++ (50% ≤ cytotoxicity < 85%) | 1 to 10 | +++ (cytotoxicity ≥ 85%) | < 100 | +++ (angiogenesis inhibition ≥ 80%) |  |  |  |  | dose-dependent differentiation into myotubes | 
CSc1cc(Oc2ccnc3c2CCC(=O)N3)ccc1NC(=O)Nc1cc(C(C)(C)C)nn1-c1ccc(C)cc1 [Compound 002, 1-(3-(tert-butyl)-1-(p-tolyl)-1H-pyrazol-5-yl)-3-(2-(methylthio)-4-((7-oxo-5,6,7,8-tetrahydro-1,8-naphthyridin-4-yl)oxy)phenyl)urea] | ++ (50% ≤ cytotoxicity < 85%) | ++ (50% ≤ cytotoxicity < 85%) | 1 to 5 | 1 to 5 | 1000 to 5000 | +++ (cytotoxicity ≥ 85%) | 1000 to 5000 | ++ (50% ≤ cytotoxicity < 85%) | 10 to 100 | +++ (cytotoxicity ≥ 85%) | < 100 | +++ (angiogenesis inhibition ≥ 80%) |  |  |  |  |  | 
CC(C)(C)c1cc(NC(=O)Nc2ccc(Oc3ccnc4c3OCC(=O)N4)cc2C(F)(F)F)n(-c2cncc(F)c2)n1 [Compound 039, 1-[5-tert-butyl-2-(5-fluoro-3-pyridyl)pyrazol-3-yl]-3-[4-[(3-oxo-4H-pyrido[3,2-b][1,4]oxazin-8-yl)oxy]-2-(trifluoromethyl)phenyl]urea] | ++ (50% ≤ cytotoxicity < 85%) | + (20 % ≤ cytotoxicity < 50%) | 1 to 5 | 5 to 10 | < 1000 | +++ (cytotoxicity ≥ 85%) | 1000 to 5000 | ++ (50% ≤ cytotoxicity < 85%) | 10 to 100 | ++ (50% ≤ cytotoxicity < 85%) | < 100 | +++ (angiogenesis inhibition ≥ 80%) |  |  |  |  |  | 
